Assay results published in patent publication US7038112B2, “Fatty acid elongases” (Miami University, priority 1997, dated 2006).

Tests used:
[1] = target: T1, EL2 (Arabidopsis thaliana, UniProt Q9SYZ0); test: 18:0-CoA elongation by EL2 microsomes in standard reaction mix containing cerulenin; format: biochemical
T1 construct: Yeast cultures containing full-length EL1 in λYES and full-length EL2 in pYEUra3 were grown in the presence of galactose or glucose; made in house; microsomes of galactose-induced cells
T1 sequence (Q9SYZ0 36-493): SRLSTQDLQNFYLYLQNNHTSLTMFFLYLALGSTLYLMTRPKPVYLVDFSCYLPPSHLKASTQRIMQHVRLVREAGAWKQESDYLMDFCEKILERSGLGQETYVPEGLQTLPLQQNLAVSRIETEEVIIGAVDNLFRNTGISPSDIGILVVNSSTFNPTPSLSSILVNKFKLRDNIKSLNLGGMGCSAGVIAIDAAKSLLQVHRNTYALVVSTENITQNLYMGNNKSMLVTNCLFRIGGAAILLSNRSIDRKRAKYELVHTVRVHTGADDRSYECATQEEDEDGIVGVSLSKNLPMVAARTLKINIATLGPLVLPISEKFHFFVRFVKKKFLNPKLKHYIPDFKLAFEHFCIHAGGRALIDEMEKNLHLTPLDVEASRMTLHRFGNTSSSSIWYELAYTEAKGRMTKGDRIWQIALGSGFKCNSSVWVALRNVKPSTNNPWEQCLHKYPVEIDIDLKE
Description: (§1) Fatty acid elongase activity was measured essentially as described in Hlousek-Radojcic, A. et al., Plant J. 8:803–809 (1995). Briefly, the standard elongation reaction mix contained 80 mM Hepes-KOH, pH 7.2, 20 mM MgCl2, 500 μM NADPH, 1 mM ATP, 100 μM malonyl-CoA, 10 μM CoA-SH and 15 μM radioactive acyl-CoA substrate. The radiolabeled substrate was either [1^−14C]18:1-CoA (50 uCi μmol^−1), [1^−14C]18:0-CoA (55 uCi μmol^−1), or [1^−14C]16:0-CoA (54 uCi μmol^−1). The reaction was initiated by the addition of yeast microsomes (5 μg protein) and the mixture incubated at 30° C. for the indicated period of time. The final reaction volume was 25 μl.
(§2) Methyl esters of the acyl-CoA elongation products were prepared as described in Example 1. Methyl esters were separated on reversed phase silica gel KC18 TLC plates (Whatman, […] thick), quantified by phosphorimaging, and analyzed on by ImageQuant software (Molecular Dynamics, Inc., Sunnyvale, Calif.). The detection limit for each product is about 0.001 nanomoles per min. per mg microsomal protein, depending on the phosphorimage exposure time.
(§3) In a third experiment, microsomes from induced and uninduced cultures containing EL1 or EL2 were incubated in the absence of cofactors involved in the β-ketoacyl condensation reaction. Cultures were induced and microsomes were prepared as described in Example 2. In vitro assays were carried out as described in Example 2, except that either ATP, CoASH or both were omitted from the enzyme reaction mixture.

[2] = target: T2, EL1 (Arabidopsis thaliana, UniProt Q9MAM3); test: 18:0-CoA elongation by EL1 microsomes in standard reaction mix containing cerulenin; format: biochemical
T2 construct: Yeast cultures containing full-length EL1 in λYES and full-length EL2 in pYEUra3 were grown in the presence of galactose or glucose; made in house; microsomes of galactose-induced cells
Description: as §1, §2, §3

[3] = EL2, galactose-induced, +Cer 0.01 mM cerulenin, average of two experiments
[4] = EL1, galactose-induced, +Cer 0.01 mM cerulenin, average of two experiments

T2 sequence (Q9MAM3 9-528 limits assumed): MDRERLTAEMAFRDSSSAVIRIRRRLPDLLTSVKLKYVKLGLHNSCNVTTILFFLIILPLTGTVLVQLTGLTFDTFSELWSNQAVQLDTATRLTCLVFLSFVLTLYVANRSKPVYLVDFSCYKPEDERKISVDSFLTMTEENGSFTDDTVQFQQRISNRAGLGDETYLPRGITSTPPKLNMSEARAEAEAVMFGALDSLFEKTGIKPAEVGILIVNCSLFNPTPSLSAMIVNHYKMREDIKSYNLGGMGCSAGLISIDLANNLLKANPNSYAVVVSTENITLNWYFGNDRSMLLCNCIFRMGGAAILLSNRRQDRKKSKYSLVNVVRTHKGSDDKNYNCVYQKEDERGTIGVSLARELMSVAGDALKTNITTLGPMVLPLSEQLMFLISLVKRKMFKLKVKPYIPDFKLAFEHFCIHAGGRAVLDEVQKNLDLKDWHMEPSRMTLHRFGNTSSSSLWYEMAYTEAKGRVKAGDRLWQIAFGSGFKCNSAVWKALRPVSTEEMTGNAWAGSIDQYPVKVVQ

## C/C=C/C/C=C/CCC(=O)[C@H]1O[C@H]1C(N)=O [cerulenin]
[1]; 0.01 mM cerulenin
  inhibition of KAS activity of EL2: does not inhibit
[1]; [3]
  20:0 product as a percent of total products formed: 41.8%
  22:0 product as a percent of total products formed: 16.1%
  24:0 product as a percent of total products formed: 20.4%
  26:0 product as a percent of total products formed: 21.8%
  Total products as a percent of total products formed: 100.0%
[2]; 0.01 mM cerulenin
  inhibition of KAS activity of EL1: does not inhibit
[2]; [4]
  20:0 product as a percent of total products formed: 46.7%
  22:0 product as a percent of total products formed: 16.2%
  24:0 product as a percent of total products formed: 17.7%
  26:0 product as a percent of total products formed: 19.4%
  Total products as a percent of total products formed: 100.0%
